The test deals with T1, human FXR (Homo sapiens, UniProt Q96RI1).
T1 construct: expressed in transfected cells; host or cells: HEK293 cells stably carrying a 5xGal4-response-element firefly luciferase reporter, transiently transfected with pcDNA3.1-Gal4-FXR
T1 sequence (Q96RI1 262-486 limits assumed): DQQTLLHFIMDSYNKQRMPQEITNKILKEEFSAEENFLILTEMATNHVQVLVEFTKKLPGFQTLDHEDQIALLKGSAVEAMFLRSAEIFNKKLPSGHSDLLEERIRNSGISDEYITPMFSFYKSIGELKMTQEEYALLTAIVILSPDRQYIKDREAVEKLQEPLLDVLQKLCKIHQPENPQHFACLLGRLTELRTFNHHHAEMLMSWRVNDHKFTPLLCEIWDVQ
As to the kind of experiment: transient human FXR/Gal4-luciferase reporter assay. To be noted: Gal4-hFXR LBD fusion, luciferase reporter in HEK293 cells; response relative to 8 μM GW-4064. The class given is cell-based. In a few lines:
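HEK293 cells stably carrying a 5×Gal4-response-element firefly luciferase reporter were transiently transfected with Gal4-hFXR. They were then incubated overnight at 37 °C with compound serial dilutions in medium containing 10% charcoal/dextran-stripped FBS. Luminescence was read after Steady-Glo addition.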

The text below walks through data of patent US12227496B2 (BRISTOL-MYERS SQUIBB COMPANY, priority 2019, dated 2025).

One may read the EC50 as the concentration giving half of the maximal effect. Read a low EC50 as an effect from little substance.

As for `CC(F)(F)c1nc(C23CCC(CN(C(=O)C4CCOCC4)c4cccc(-c5cn[nH]c(=O)c5)c4)(CC2)CC3)no1` [Example 129, N-((4-(5-(1,1-difluoroethyl)-1,2,4-oxadiazol-3-yl)bicyclo[2.2.2]octan-1-yl)methyl)-N-(3-(6-oxo-1,6-dihydropyridazin-4-yl)phenyl)tetrahydro-2H-pyran-4-carboxamide], the EC50 is 1480 nM.

Compound `CN1CCC(C(=O)N(CC23CCC(c4cc(C5CC5)nn4C)(CC2)CC3)c2cccc(-c3cc(C4CC4)on3)c2)CC1` [Example 133, N-((4-(3-cyclopropyl-1-methyl-1H-pyrazol-5-yl)bicyclo[2.2.2]octan-1-yl)methyl)-N-(3-(5-cyclopropylisoxazol-3-yl)phenyl)-1-methylpiperidine-4-carboxamide] displayed a half-maximal effective concentration (EC50) of 2000 nM.

`O=C(N1CCC(N2CCCCC2)CC1)N(CC12CCC(c3nc(C4CC4)no3)(CC1)CC2)c1cccc(-c2nc(C3CC3)no2)c1` [Example 64, N-((4-(3-cyclopropyl-1,2,4-oxadiazol-5-yl)bicyclo[2.2.2]octan-1-yl)methyl)-N-(3-(3-cyclopropyl-1,2,4-oxadiazol-5-yl)phenyl)-[1,4′-bipiperidine]-1′-carboxamide] yielded an EC50 of 4820 nM.

Take `O=C(C1CCC(F)(F)CC1)N(CC12CCC(c3nc(CC4CC4)no3)(CC1)CC2)c1cccc(-c2nc(CC3CC3)no2)c1` [Example 42, N-((4-(3-(cyclopropylmethyl)-1,2,4-oxadiazol-5-yl)bicyclo[2.2.2]octan-1-yl)methyl)-N-(3-(3-(cyclopropylmethyl)-1,2,4-oxadiazol-5-yl)phenyl)-4,4-difluorocyclohexane-1-carboxamide]: the midpoint of the response, the EC50, lay at 536 nM.

`CCOc1ncc(-c2cccc(N(CC34CCC(c5nc(C6CC6)no5)(CC3)CC4)C(=O)C3CCC(F)(F)CC3)c2)o1` [Example 9, N-((4-(3-cyclopropyl-1,2,4-oxadiazol-5-yl)bicyclo[2.2.2]octan-1-yl)methyl)-N-(3-(2-ethoxyoxazol-5-yl)phenyl)-4,4-difluorocyclohexane-1-carboxamide] gave a concentration giving a half-maximal response (EC50) of 142 nM.

Compound `Cc1noc(-c2cccc(N(CC34CCC(c5nc(C)no5)(CC3)CC4)C(=O)C3CCCCC3)c2)n1` [Example 1, N-((4-(3-methyl-1,2,4-oxadiazol-5-yl)bicyclo[2.2.2]octan-1-yl)methyl)-N-(3-(3-methyl-1,2,4-oxadiazol-5-yl)phenyl)cyclohexanecarboxamide] came in with a 50% effective concentration (EC50) of 736 nM.

For `CCCc1ncc(-c2cccc(N(CC34CCC(c5nc(C6CC6)no5)(CC3)CC4)C(=O)C3CCOCC3)c2)o1` [Example 29, N-((4-(3-cyclopropyl-1,2,4-oxadiazol-5-yl)bicyclo[2.2.2]octan-1-yl)methyl)-N-(3-(2-propyloxazol-5-yl)phenyl)tetrahydro-2H-pyran-4-carboxamide], the response was half-maximal at 53 nM (EC50).

In turn, `O=C(C1CCOCC1)N(CC12CCC(c3nc(C4CC4)no3)(CC1)CC2)c1cccc(-c2cnc(C3CC3)o2)c1` [Example 23, N-((4-(3-cyclopropyl-1,2,4-oxadiazol-5-yl)bicyclo[2.2.2]octan-1-yl)methyl)-N-(3-(2-cyclopropyloxazol-5-yl)phenyl)tetrahydro-2H-pyran-4-carboxamide] came in with an EC50 of 74 nM.

As to `O=C(N1CCC(F)(F)CC1)N(CC12CCC(c3nc(C4CC4)no3)(CC1)CC2)c1cccc(-c2nc(C3CC3)no2)c1` [Example 58, N-((4-(3-cyclopropyl-1,2,4-oxadiazol-5-yl)bicyclo[2.2.2]octan-1-yl)methyl)-N-(3-(3-cyclopropyl-1,2,4-oxadiazol-5-yl)phenyl)-4,4-difluoropiperidine-1-carboxamide], the response was half-maximal at 413 nM (EC50).

Take `CCc1noc(-c2cccc(N(C(=O)C3CCCCC3)C(C)C34CCC(c5nc(C)no5)(CC3)CC4)c2)n1` (single isomer, unassigned) [Example 70, N-(3-(3-ethyl-1,2,4-oxadiazol-5-yl)phenyl)-N-(1-(4-(3-methyl-1,2,4-oxadiazol-5-yl)bicyclo[2.2.2]octan-1-yl)ethyl)cyclohexanecarboxamide]: the EC50 is 1500 nM.
